According to ChEMBL document CHEMBL2321867, “Synthesis and structure-activity relationships of 2-hydrazinyladenosine derivatives as A(2A) adenosine receptor ligands” (Bioorg Med Chem, 2013):
pEC50, pKi: −log10 of the molar value.

Columns and labels:
[1] = biological target: Adenosine receptor A2a (Rattus norvegicus) (UniProt P30543); assay: Displacement of [3H]CGS21680 from adenosine A2A receptor in rat brain striatal membrane at 1 uM after 60 mins by liquid scintillation counting analysis; format: cell membranes
Adenosine receptor A2a (Rattus norvegicus), sequence (P30543 whole entry): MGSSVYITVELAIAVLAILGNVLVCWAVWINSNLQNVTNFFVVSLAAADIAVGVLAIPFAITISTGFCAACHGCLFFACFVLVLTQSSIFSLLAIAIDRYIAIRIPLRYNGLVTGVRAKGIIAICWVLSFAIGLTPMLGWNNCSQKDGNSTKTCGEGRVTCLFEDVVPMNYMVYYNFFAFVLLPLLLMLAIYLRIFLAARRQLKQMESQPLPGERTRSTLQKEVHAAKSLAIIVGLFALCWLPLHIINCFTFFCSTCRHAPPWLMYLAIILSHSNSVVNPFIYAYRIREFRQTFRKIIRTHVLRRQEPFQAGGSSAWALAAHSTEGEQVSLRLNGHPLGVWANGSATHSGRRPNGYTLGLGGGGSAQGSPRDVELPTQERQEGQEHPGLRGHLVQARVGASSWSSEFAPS

Adenosine receptor A2a [2] = biological target: Adenosine receptor A2a (Rattus norvegicus, UniProt P30543); assay: Displacement of [3H]CGS21680 from adenosine A2A receptor in rat brain striatal membrane after 60 mins by liquid scintillation counting analysis; format: cell membranes
Adenosine receptor A2a (Rattus norvegicus, UniProt P30543), sequence (P30543 whole entry): as above

[3] = biological target: T1, Adenosine receptor A3 (Homo sapiens) (UniProt P0DMS8); assay: Displacement of [3H]NECA from human recombinant adenosine A3 receptor expressed in CHO cells at 1 uM after 180 mins by liquid scintillation counting analysis; format: cell-based
T1 sequence (whole entry): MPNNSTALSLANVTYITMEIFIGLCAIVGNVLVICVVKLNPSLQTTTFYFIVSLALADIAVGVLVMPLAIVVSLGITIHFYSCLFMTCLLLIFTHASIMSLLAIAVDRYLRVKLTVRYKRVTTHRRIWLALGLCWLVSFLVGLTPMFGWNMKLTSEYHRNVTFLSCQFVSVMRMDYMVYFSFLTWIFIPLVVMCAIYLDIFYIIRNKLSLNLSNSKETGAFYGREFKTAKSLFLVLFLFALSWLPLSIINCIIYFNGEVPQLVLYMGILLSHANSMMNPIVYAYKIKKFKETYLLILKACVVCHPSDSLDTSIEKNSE

Adenosine receptor A3 [4] = biological target: T2, Adenosine receptor A3 (Homo sapiens, UniProt P0DMS8); assay: Displacement of [3H]NECA from human recombinant adenosine A3 receptor expressed in CHO cells after 180 mins by liquid scintillation counting analysis; format: cell-based
T2 sequence (P0DMS8 whole entry): T1 sequence (whole entry)

[5] = biological target: T3, Adenosine receptor A1 (Rattus norvegicus) (UniProt P25099); assay: Displacement of [3H]CCPA from adenosine A1 receptor in rat brain cortical membrane at 1 uM after 90 mins by liquid scintillation counting analysis; format: cell membranes
T3 sequence (whole entry): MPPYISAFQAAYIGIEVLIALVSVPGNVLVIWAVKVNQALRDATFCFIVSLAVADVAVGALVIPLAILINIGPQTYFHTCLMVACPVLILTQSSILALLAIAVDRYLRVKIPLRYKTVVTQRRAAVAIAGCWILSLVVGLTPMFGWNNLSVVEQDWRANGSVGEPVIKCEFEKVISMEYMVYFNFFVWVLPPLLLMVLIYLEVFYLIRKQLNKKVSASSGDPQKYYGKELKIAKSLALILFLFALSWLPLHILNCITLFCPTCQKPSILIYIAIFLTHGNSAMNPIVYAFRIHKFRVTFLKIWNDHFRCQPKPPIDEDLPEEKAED

Adenosine receptor A1 [6] = biological target: T4, Adenosine receptor A1 (Rattus norvegicus, UniProt P25099); assay: Displacement of [3H]CCPA from adenosine A1 receptor in rat brain cortical membrane after 90 mins by liquid scintillation counting analysis; format: cell membranes
T4 sequence (P25099 whole entry): T3 sequence (whole entry)

Adenosine receptor A3 [7] = biological target: T2, Adenosine receptor A3; assay: Displacement of [3H]NECA from human recombinant adenosine A3 receptor
[8] = biological target: T5, Adenosine receptor A2b (Homo sapiens) (UniProt P29275); assay: Displacement of [3H]PSB-603 from human recombinant adenosine A2B receptor expressed in CHO cells at 10 uM after 75 mins by liquid scintillation counting analysis; format: cell-based
T5 sequence (whole entry): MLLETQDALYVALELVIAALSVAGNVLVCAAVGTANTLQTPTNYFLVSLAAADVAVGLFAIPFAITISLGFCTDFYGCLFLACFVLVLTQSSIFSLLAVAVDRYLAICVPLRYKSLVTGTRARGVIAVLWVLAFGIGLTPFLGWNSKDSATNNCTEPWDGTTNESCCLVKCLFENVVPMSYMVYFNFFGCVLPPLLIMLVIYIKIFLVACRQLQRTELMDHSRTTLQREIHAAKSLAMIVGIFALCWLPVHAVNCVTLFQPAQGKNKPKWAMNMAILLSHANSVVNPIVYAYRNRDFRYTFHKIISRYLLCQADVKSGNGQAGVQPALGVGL

Adenosine receptor A1 [9] = biological target: T6, Adenosine receptor A1 (Homo sapiens, UniProt P30542); assay: Displacement of [3H]CCPA from human recombinant adenosine A1 receptor expressed in CHO cells 90 mins by liquid scintillation counting analysis; format: cell-based
T6 sequence (P30542 whole entry): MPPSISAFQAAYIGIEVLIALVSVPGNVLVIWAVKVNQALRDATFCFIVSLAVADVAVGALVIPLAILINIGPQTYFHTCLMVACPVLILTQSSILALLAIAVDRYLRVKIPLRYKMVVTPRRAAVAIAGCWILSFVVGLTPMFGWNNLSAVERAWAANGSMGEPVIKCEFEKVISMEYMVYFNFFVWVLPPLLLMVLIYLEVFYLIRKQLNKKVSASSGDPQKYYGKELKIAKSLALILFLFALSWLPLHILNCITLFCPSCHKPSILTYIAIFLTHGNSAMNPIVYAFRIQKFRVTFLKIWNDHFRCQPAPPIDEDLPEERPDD

Adenosine receptor A1 [10] = biological target: T6, Adenosine receptor A1
Adenosine receptor A2a [11] = biological target: Adenosine receptor A2a (Homo sapiens, UniProt P29274); assay: Agonist activity at human recombinant adenosine A2A receptor expressed in CHO cells assessed as [3H]cAMP accumulation after 15 mins by liquid scintillation counting; format: functional, cell-based
Adenosine receptor A2a (Homo sapiens, UniProt P29274), sequence (P29274 whole entry): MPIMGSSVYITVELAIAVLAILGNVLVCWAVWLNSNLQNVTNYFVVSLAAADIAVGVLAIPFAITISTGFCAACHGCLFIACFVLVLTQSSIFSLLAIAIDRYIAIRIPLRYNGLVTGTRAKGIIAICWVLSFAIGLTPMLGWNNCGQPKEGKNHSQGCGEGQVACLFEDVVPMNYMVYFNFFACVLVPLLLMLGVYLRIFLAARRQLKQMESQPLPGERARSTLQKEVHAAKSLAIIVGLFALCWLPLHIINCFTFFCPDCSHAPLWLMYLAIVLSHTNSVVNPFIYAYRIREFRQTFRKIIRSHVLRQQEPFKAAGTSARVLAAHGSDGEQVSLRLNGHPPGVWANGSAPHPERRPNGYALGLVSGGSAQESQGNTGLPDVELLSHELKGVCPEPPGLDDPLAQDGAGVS

| SMILES | inhibition [1] [%] | pKi (Adenosine receptor A2a [2]) | also measured |
| --- | --- | --- | --- |
| Nc1nc(N/N=C/[C@H](O)[C@H](O)[C@@H](O)[C@@H](O)CO)nc2c1ncn2[C@@H]1O[C@H](CO)[C@@H](O)[C@H]1O | 33 | < 6.00 | – |
| CN(NC(=O)Nc1ccccc1)c1nc(N)c2ncn([C@@H]3O[C@H](CO)[C@@H](O)[C@H]3O)c2n1 | 11 | < 6.00 | – |
| CN(NC(=S)Nc1ccccc1)c1nc(N)c2ncn([C@@H]3O[C@H](CO)[C@@H](O)[C@H]3O)c2n1 | 16 | < 6.00 | inhibition [3]: 36%; pKi (Adenosine receptor A3 [4]): < 6.00; inhibition [5]: 1%; pKi (Adenosine receptor A1 [6]): < 6.00 |
| Nc1nc(N/N=C/c2ccc(Cl)cc2O)nc2c1ncn2[C@@H]1O[C@H](CO)[C@@H](O)[C@H]1O | – | 7.04 | – |
| CN(/N=C/[C@H](O)[C@@H](O)[C@@H](O)[C@H](O)CO)c1nc(N)c2ncn([C@@H]3O[C@H](CO)[C@@H](O)[C@H]3O)c2n1 | 25 | < 6.00 | – |
| CN(/N=C/[C@H](O)[C@H](O)[C@@H](O)[C@@H](O)CO)c1nc(N)c2ncn([C@@H]3O[C@H](CO)[C@@H](O)[C@H]3O)c2n1 | 2 | < 6.00 | – |
| Nc1nc(N/N=C/C2CCCCC2)nc2c1ncn2[C@@H]1O[C@H](CO)[C@@H](O)[C@H]1O [BINODENOSON] | – | 7.59 | pKi (Adenosine receptor A3 [7]): 6.04; pKi (Adenosine receptor A3 [4]): 7.28; inhibition [8]: 17%; pKi (Adenosine receptor A1 [9]): 6.77; pKi (Adenosine receptor A1 [6]): 7.15; pKi (Adenosine receptor A1 [10]): 4.32 |
| Nc1nc(N/N=C/[C@@H](O)[C@H](O)[C@H](O)[C@@H](O)CO)nc2c1ncn2[C@@H]1O[C@H](CO)[C@@H](O)[C@H]1O | – | 6.48 | pEC50 (Adenosine receptor A2a [11]): 5.84 |
| Nc1nc(N/N=C/c2ccc(Cl)c(Cl)c2)nc2c1ncn2[C@@H]1O[C@H](CO)[C@@H](O)[C@H]1O | – | 7.61 | pEC50 (Adenosine receptor A2a [11]): 5.78 |
| Nc1nc(N/N=C/[C@@H](O)[C@H](O)[C@@H](O)[C@@H](O)CO)nc2c1ncn2[C@@H]1O[C@H](CO)[C@@H](O)[C@H]1O | 42 | < 6.00 | – |
| CN(/N=C(\CO)[C@H](O)[C@@H](O)[C@@H](O)CO)c1nc(N)c2ncn([C@@H]3O[C@H](CO)[C@@H](O)[C@H]3O)c2n1 | 25 | < 6.00 | – |
| Nc1nc(N/N=C(\CO)[C@H](O)[C@@H](O)[C@@H](O)CO)nc2c1ncn2[C@@H]1O[C@H](CO)[C@@H](O)[C@H]1O | 34 | < 6.00 | – |
| Nc1nc(N/N=C/c2ccc(Cl)cc2)nc2c1ncn2[C@@H]1O[C@H](CO)[C@@H](O)[C@H]1O | – | 7.79 | – |
| Nc1nc(N/N=C/[C@@H](O)[C@@H](O)[C@@H](O)CO)nc2c1ncn2[C@@H]1O[C@H](CO)[C@@H](O)[C@H]1O | 33 | < 6.00 | – |
| CN(/N=C/[C@@H](O)[C@@H](O)[C@@H](O)CO)c1nc(N)c2ncn([C@@H]3O[C@H](CO)[C@@H](O)[C@H]3O)c2n1 | 7 | < 6.00 | – |
| CN(/N=C/[C@@H](O)[C@H](O)[C@@H](O)[C@@H](O)CO)c1nc(N)c2ncn([C@@H]3O[C@H](CO)[C@@H](O)[C@H]3O)c2n1 | 31 | < 6.00 | – |
| COc1ccc(/C=N/Nc2nc(N)c3ncn([C@@H]4O[C@H](CO)[C@@H](O)[C@H]4O)c3n2)cc1 | – | 7.92 | pKi (Adenosine receptor A1 [9]): 6.14 |
